Experiments:
h-GABA-A α5β3γ2 [1] = target: T1, h-GABA-A α5β3γ2 (Homo sapiens, UniProt P18507+P31644); experiment: Two-electrode voltage clamp electrophysiology in Xenopus laevis oocytes expressing GABAA receptors, modulation of GABA EC20 current; type: cell-based; parameters: host or cells: Xenopus laevis oocytes micro-injected with RNA transcripts of the subunits; conditions: Table 1; for Efficacy (GABA) %: % modulation of GABA EC20 = 100*(Fold increase-1); for Fold increase h-GABA-A α5β3γ2 oocyte: test compound at approx. 30 fold its Ki, GABA at EC20
Procedure, shortened: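 Human α5β3γ2 GABAA receptors were expressed in Xenopus oocytes by RNA injection, with γ2 RNA 5–10-fold higher, and recorded 3–5 days later by two-electrode voltage clamp at −80 mV at room temperature. The test compound, at about 30× its Ki, was co-applied during a second GABA EC20 pulse. Efficacy is the extremum of the point-by-point ratio to the first response, expressed as 100*(Fold increase−1).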

h-GABA-A α5β3γ2 [2] = target: T1, h-GABA-A α5β3γ2; experiment: [3H]flumazenil competition binding assay, membranes of HEK293 cells expressing GABAA receptors; conditions: displacement of [3H]-Flumazenil 0.5 nM, HEK293 cells expressing human receptors, mean of two determinations; Table 1
Procedure, shortened: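 Membranes from HEK293 cells transiently expressing human α5β3γ2 GABAA receptors, in Krebs-tris buffer pH 7.5, competed against [3H]flumazenil for 1 hour at 4° C to equilibrium. Bound radioactivity collected on GF/C filters and counted by liquid scintillation; Ki values are means of two determinations.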

Cc1ccc(-c2noc(C)c2Cn2ncc(N3CC(OCC(F)F)C3)cc2=O)cn1 [Example 206, 5-[3-(2,2-difluoroethoxy)azetidin-1-yl]-2-[[5-methyl-3-(6-methyl-3-pyridyl)isoxazol-4-yl]methyl]pyridazin-3-one]
Efficacy (GABA) % (h-GABA-A α5β3γ2 [1]): 144%
Fold increase h-GABA-A α5β3γ2 oocyte (h-GABA-A α5β3γ2 [1]): 2.44
Ki (h-GABA-A α5β3γ2 [2]): 0.0137 µM

COc1cc(-c2cnn(Cc3c(-c4cnc(C)c(F)c4)noc3C)c(=O)c2)ccn1 [Example 207, 2-((3-(5-fluoro-6-methylpyridin-3-yl)-5-methylisoxazol-4-yl)methyl)-5-(2-methoxypyridin-4-yl)pyridazin-3(2H)-one]
Efficacy (GABA) % (h-GABA-A α5β3γ2 [1]): 75%
Fold increase h-GABA-A α5β3γ2 oocyte (h-GABA-A α5β3γ2 [1]): 1.75
Ki (h-GABA-A α5β3γ2 [2]): 0.0148 µM

Cc1ncc(-c2noc(C)c2Cn2ncc(N3CC4(CCCO4)C3)cc2=O)cc1F [Example 208, 2-((3-(5-fluoro-6-methylpyridin-3-yl)-5-methylisoxazol-4-yl)methyl)-5-(5-oxa-2-azaspiro[3.4]octan-2-yl)pyridazin-3(2H)-one]
Efficacy (GABA) % (h-GABA-A α5β3γ2 [1]): 110%
Fold increase h-GABA-A α5β3γ2 oocyte (h-GABA-A α5β3γ2 [1]): 2.1
Ki (h-GABA-A α5β3γ2 [2]): 0.0612 µM

Cc1onc(-c2ccc(Cl)nc2)c1Cn1ncc(N2CC3(CCCO3)C2)cc1=O [Example 209, 2-((3-(6-chloropyridin-3-yl)-5-methylisoxazol-4-yl)methyl)-5-(5-oxa-2-azaspiro[3.4]octan-2-yl)pyridazin-3(2H)-one]
Efficacy (GABA) % (h-GABA-A α5β3γ2 [1]): 94%
Fold increase h-GABA-A α5β3γ2 oocyte (h-GABA-A α5β3γ2 [1]): 1.94
Ki (h-GABA-A α5β3γ2 [2]): 0.0527 µM

CCCn1cc(-c2cnn(Cc3c(-c4ccc(C)nc4)noc3C)c(=O)c2)cn1 [Example 210, 2-((5-methyl-3-(6-methyl-3-pyridyl)isoxazol-4-yl)methyl)-5-(1-propylpyrazol-4-yl)pyridazin-3-one]
Efficacy (GABA) % (h-GABA-A α5β3γ2 [1]): 143%
Fold increase h-GABA-A α5β3γ2 oocyte (h-GABA-A α5β3γ2 [1]): 2.43
Ki (h-GABA-A α5β3γ2 [2]): 0.026 µM

Cc1ccc(-c2noc(C)c2Cn2ncc(-c3cccc(C#N)n3)cc2=O)cn1 [Example 211, 6-(1-((5-methyl-3-(6-methyl-3-pyridyl)isoxazol-4-yl)methyl)-6-oxo-pyridazin-4-yl)pyridine-2-carbonitrile]
Efficacy (GABA) % (h-GABA-A α5β3γ2 [1]): 324%
Fold increase h-GABA-A α5β3γ2 oocyte (h-GABA-A α5β3γ2 [1]): 4.24
Ki (h-GABA-A α5β3γ2 [2]): 0.0409 µM

COC1CN(c2cnn(Cc3c(-c4ccc(Cl)nc4)noc3C)c(=O)c2)C1 [Example 212, 2-((3-(6-chloropyridin-3-yl)-5-methylisoxazol-4-yl)methyl)-5-(3-methoxyazetidin-1-yl)pyridazin-3(2H)-one]
Efficacy (GABA) % (h-GABA-A α5β3γ2 [1]): 118%
Fold increase h-GABA-A α5β3γ2 oocyte (h-GABA-A α5β3γ2 [1]): 2.18
Ki (h-GABA-A α5β3γ2 [2]): 0.0416 µM

CCOC1CN(c2cnn(Cc3c(-c4cnc(C)c(F)c4)noc3C)c(=O)c2)C1 [Example 213, 5-(3-ethoxyazetidin-1-yl)-2-((3-(5-fluoro-6-methylpyridin-3-yl)-5-methylisoxazol-4-yl)methyl)pyridazin-3(2H)-one]
Efficacy (GABA) % (h-GABA-A α5β3γ2 [1]): 108%
Fold increase h-GABA-A α5β3γ2 oocyte (h-GABA-A α5β3γ2 [1]): 2.08
Ki (h-GABA-A α5β3γ2 [2]): 0.0328 µM

COc1cc(-c2cnn(Cc3c(-c4ccc(Cl)nc4)noc3C)c(=O)c2)ccn1 [Example 214, 2-((3-(6-chloropyridin-3-yl)-5-methylisoxazol-4-yl)methyl)-5-(2-methoxypyridin-4-yl)pyridazin-3(2H)-one]
Efficacy (GABA) % (h-GABA-A α5β3γ2 [1]): 74%
Fold increase h-GABA-A α5β3γ2 oocyte (h-GABA-A α5β3γ2 [1]): 1.74
Ki (h-GABA-A α5β3γ2 [2]): 0.0083 µM

Cc1onc(-c2ccc(Cl)nc2)c1Cn1ncc(-c2cnn(C)c2)cc1=O [Example 215, 2-((3-(6-chloropyridin-3-yl)-5-methylisoxazol-4-yl)methyl)-5-(1-methyl-1H-pyrazol-4-yl)pyridazin-3(2H)-one]
Efficacy (GABA) % (h-GABA-A α5β3γ2 [1]): 119%
Fold increase h-GABA-A α5β3γ2 oocyte (h-GABA-A α5β3γ2 [1]): 2.19
Ki (h-GABA-A α5β3γ2 [2]): 0.05 µM

Cc1ccc(-c2noc(C)c2Cn2ncc(N3CC4(CCCCO4)C3)cc2=O)cn1 [Example 216, 2-((5-methyl-3-(6-methylpyridin-3-yl)isoxazol-4-yl)methyl)-5-(5-oxa-2-azaspiro[3.5]nonan-2-yl)pyridazin-3(2H)-one]
Efficacy (GABA) % (h-GABA-A α5β3γ2 [1]): 103%
Fold increase h-GABA-A α5β3γ2 oocyte (h-GABA-A α5β3γ2 [1]): 2.03
Ki (h-GABA-A α5β3γ2 [2]): 0.0158 µM

Cc1onc(-c2ccc(Cl)nc2)c1Cn1ncc(N2CC3(C2)CC(F)(F)CO3)cc1=O [Example 217, 2-((3-(6-chloropyridin-3-yl)-5-methylisoxazol-4-yl)methyl)-5-(7,7-difluoro-5-oxa-2-azaspiro[3.4]octan-2-yl)pyridazin-3(2H)-one]
Efficacy (GABA) % (h-GABA-A α5β3γ2 [1]): 85%
Fold increase h-GABA-A α5β3γ2 oocyte (h-GABA-A α5β3γ2 [1]): 1.85
Ki (h-GABA-A α5β3γ2 [2]): 0.0123 µM

Cc1ccc(-c2noc(C)c2Cn2ncc(-c3ccc4ncc(C)n4c3)cc2=O)cn1 [Example 218, 2-((5-methyl-3-(6-methylpyridin-3-yl)isoxazol-4-yl)methyl)-5-(3-methylimidazo[1,2-a]pyridin-6-yl)pyridazin-3(2H)-one]
Efficacy (GABA) % (h-GABA-A α5β3γ2 [1]): 84%
Fold increase h-GABA-A α5β3γ2 oocyte (h-GABA-A α5β3γ2 [1]): 1.84
Ki (h-GABA-A α5β3γ2 [2]): 0.0198 µM

Cc1onc(-c2ccc(Cl)nc2)c1Cn1ncc(N2C[C@@H](C)O[C@@H](C)C2)cc1=O [Example 219, 2-((3-(6-chloropyridin-3-yl)-5-methylisoxazol-4-yl)methyl)-5-((2RS,6SR)-2,6-dimethylmorpholino)pyridazin-3(2H)-one]
Efficacy (GABA) % (h-GABA-A α5β3γ2 [1]): 247%
Fold increase h-GABA-A α5β3γ2 oocyte (h-GABA-A α5β3γ2 [1]): 3.47
Ki (h-GABA-A α5β3γ2 [2]): 0.0026 µM

CCOC1CN(c2cnn(Cc3c(-c4ccc(Cl)nc4)noc3C)c(=O)c2)C1 [Example 220, 2-((3-(6-chloropyridin-3-yl)-5-methyl-1,2-oxazol-4-yl)methyl)-5-(3-ethoxyazetidin-1-yl)pyridazin-3-one]
Efficacy (GABA) % (h-GABA-A α5β3γ2 [1]): 118%
Fold increase h-GABA-A α5β3γ2 oocyte (h-GABA-A α5β3γ2 [1]): 2.18
Ki (h-GABA-A α5β3γ2 [2]): 0.0253 µM

CCn1cc(-c2cnn(Cc3c(-c4ccc(Cl)nc4)noc3C)c(=O)c2)cn1 [Example 221, 2-((3-(6-chloropyridin-3-yl)-5-methylisoxazol-4-yl)methyl)-5-(1-ethyl-1H-pyrazol-4-yl)pyridazin-3(2H)-one]
Efficacy (GABA) % (h-GABA-A α5β3γ2 [1]): 99%
Fold increase h-GABA-A α5β3γ2 oocyte (h-GABA-A α5β3γ2 [1]): 1.99
Ki (h-GABA-A α5β3γ2 [2]): 0.0312 µM

Cc1onc(-c2ccc(Cl)nc2)c1Cn1ncc(-c2cnn(C3CC3)c2)cc1=O [Example 222, 2-((3-(6-chloropyridin-3-yl)-5-methylisoxazol-4-yl)methyl)-5-(1-cyclopropyl-1H-pyrazol-4-yl)pyridazin-3(2H)-one]
Efficacy (GABA) % (h-GABA-A α5β3γ2 [1]): 82%
Fold increase h-GABA-A α5β3γ2 oocyte (h-GABA-A α5β3γ2 [1]): 1.82
Ki (h-GABA-A α5β3γ2 [2]): 0.0312 µM

Cc1onc(-c2ccc(Cl)nc2)c1Cn1ncc(N2CCN3C(=O)CCC3C2)cc1=O (stereo not drawn) [Example 223, 2-(1-((3-(6-chloropyridin-3-yl)-5-methylisoxazol-4-yl)methyl)-6-oxo-1,6-dihydropyridazin-4-yl)hexahydropyrrolo[1,2-a]pyrazin-6(2H)-one]
Efficacy (GABA) % (h-GABA-A α5β3γ2 [1]): 215%
Fold increase h-GABA-A α5β3γ2 oocyte (h-GABA-A α5β3γ2 [1]): 3.15
Ki (h-GABA-A α5β3γ2 [2]): 0.0276 µM

Cc1onc(-c2ccc(Cl)nc2)c1Cn1ncc(N2CC(OC3CC3)C2)cc1=O [Example 224, 2-((3-(6-chloropyridin-3-yl)-5-methylisoxazol-4-yl)methyl)-5-(3-cyclopropoxyazetidin-1-yl)pyridazin-3(2H)-one]
Efficacy (GABA) % (h-GABA-A α5β3γ2 [1]): 124%
Fold increase h-GABA-A α5β3γ2 oocyte (h-GABA-A α5β3γ2 [1]): 2.24
Ki (h-GABA-A α5β3γ2 [2]): 0.0128 µM

Cc1ccc(-c2noc(C)c2Cn2ncc(N3CCC4(CCOCC4)CC3)cc2=O)cn1 [Example 226, 2-((5-methyl-3-(6-methylpyridin-3-yl)isoxazol-4-yl)methyl)-5-(3-oxa-9-azaspiro[5.5]undecan-9-yl)pyridazin-3(2H)-one]
Efficacy (GABA) % (h-GABA-A α5β3γ2 [1]): 95%
Fold increase h-GABA-A α5β3γ2 oocyte (h-GABA-A α5β3γ2 [1]): 1.95
Ki (h-GABA-A α5β3γ2 [2]): 0.013 µM

Cc1onc(-c2ccc(Cl)nc2)c1Cn1ncc(N2CCO[C@@H](C)C2)cc1=O [Example 227, (S)-2-((3-(6-chloropyridin-3-yl)-5-methylisoxazol-4-yl)methyl)-5-(2-methylmorpholino)pyridazin-3(2H)-one]
Efficacy (GABA) % (h-GABA-A α5β3γ2 [1]): 149%
Fold increase h-GABA-A α5β3γ2 oocyte (h-GABA-A α5β3γ2 [1]): 2.49
Ki (h-GABA-A α5β3γ2 [2]): 0.0044 µM

COc1cc(-c2cnn(Cc3c(-c4ncc(C(F)(F)F)cn4)noc3C)c(=O)c2)ccn1 [Example 228, 5-(2-methoxypyridin-4-yl)-2-((5-methyl-3-(5-(trifluoromethyl)pyrimidin-2-yl)isoxazol-4-yl)methyl)pyridazin-3(2H)-one]
Efficacy (GABA) % (h-GABA-A α5β3γ2 [1]): 41%
Fold increase h-GABA-A α5β3γ2 oocyte (h-GABA-A α5β3γ2 [1]): 1.41
Ki (h-GABA-A α5β3γ2 [2]): 0.0038 µM

COC1CN(c2cnn(Cc3c(-c4ncc(C(F)(F)F)cn4)noc3C)c(=O)c2)C1 [Example 229, 5-(3-methoxyazetidin-1-yl)-2-((5-methyl-3-(5-(trifluoromethyl)pyrimidin-2-yl)isoxazol-4-yl)methyl)pyridazin-3(2H)-one]
Efficacy (GABA) % (h-GABA-A α5β3γ2 [1]): 81%
Fold increase h-GABA-A α5β3γ2 oocyte (h-GABA-A α5β3γ2 [1]): 1.81
Ki (h-GABA-A α5β3γ2 [2]): 0.01 µM

Cc1onc(-c2ccc(Cl)nc2)c1Cn1ncc(N2CC3(C[C@@H](F)CO3)C2)cc1=O [Example 230, (R)-2-((3-(6-chloropyridin-3-yl)-5-methylisoxazol-4-yl)methyl)-5-(7-fluoro-5-oxa-2-azaspiro[3.4]octan-2-yl)pyridazin-3(2H)-one]
Efficacy (GABA) % (h-GABA-A α5β3γ2 [1]): 127%
Fold increase h-GABA-A α5β3γ2 oocyte (h-GABA-A α5β3γ2 [1]): 2.27
Ki (h-GABA-A α5β3γ2 [2]): 0.0451 µM

Cc1onc(-c2ccc(Cl)nc2)c1Cn1ncc(N2CC3(C[C@H](F)CO3)C2)cc1=O [Example 232, (S)-2-((3-(6-chloropyridin-3-yl)-5-methylisoxazol-4-yl)methyl)-5-(7-fluoro-5-oxa-2-azaspiro[3.4]octan-2-yl)pyridazin-3(2H)-one]
Efficacy (GABA) % (h-GABA-A α5β3γ2 [1]): 104%
Fold increase h-GABA-A α5β3γ2 oocyte (h-GABA-A α5β3γ2 [1]): 2.04
Ki (h-GABA-A α5β3γ2 [2]): 0.037 µM
